Test results reported in patent publication US7432365B1, “DNA molecules encoding beta clamp proteins of gram positive bacteria” (priority 1998, dated 2008).

Tests used:
Gram positive PolC = Gram positive PolC (Bacillus subtilis, UniProt P13267); details: known from the literature; cited from earlier work
DnaE polymerase = assay: Inhibition of synthesis on SSB coated primed M13mp18 ssDNA by TMAU; format: biochemical, S. pyogenes
Procedure: (§1) To test DnaE for function with τδδ′ and β, replication reactions contained 70 ng (25 fmol) of 30-mer singly primed M13 mp18 ssDNA, 0.82 μg of S. pyogenes SSB, and 3.3 ng-300 ng of DnaE (25 fmol −2.3 pmol) in 23.5 μl of 20 mM Tris-HCl (pH 7.5), 4% glycerol, 0.1 mM EDTA, 5 mM dithiothreitol (DTT), 40 μg/ml BSA, 2 mM ATP, 8 mM MgCl2, and 60 μM each of dGTP and dCTP. When present, reactions included 43.3 ng of β and 10 ng of τδδ′. Reactions were preincubated for 3 min at 37° C., and then NaCl was added to 40 mM followed by another 2 min at 37° C. DNA synthesis was initiated upon addition of 1.5 μl of 1.5 mM dATP, 0.5 mM [α^32P]-dTTP (specific activity 2,000-4,000 cpm/pmol). Aliquots of 25 μl were removed at the indicated times and quenched with an equal volume (25 μl) of 1% SDS, 40 mM EDTA. One-half of the quenched reaction was analyzed for total deoxynucleotide incorporation using DE81 filter paper and the other half was analyzed on a 0.8% neutral agarose gel. The effect of TMAU was also examined, in which 100 μM TMAU in DMSO (2% DMSO final concentration) was present. In this case, replication was allowed to proceed for 1 min before being quenched with […] of 1% SDS, 40 mM EDTA.
(§2) Gram positive PolC is known to be inhibited by the antibiotic hydroxyphenylaza-uracil (“HPUra”) and its derivatives. In FIG. 21F, the PolC·τδδ′, β and DnaE were tested for inhibition of synthesis on SSB coated primed M13mp18 ssDNA by an HPUra derivative, trimethylanilino-uracil (“TMAU”).

PolC·τδδ′, β = biological target: T1, PolC·τδδ′, β (Streptococcus pyogenes, UniProt P0C0B7); assay: as above; format: biochemical, S. pyogenes; details: 100 μM TMAU, 2% DMSO, 1 min
T1 construct: made in house; host or cells: E. coli BL21(DE3) RecA-, pET11a (β: pET16b)
Procedure: as §1, §2

E. coli Pol III core = E. coli Pol III core (Escherichia coli, UniProt P10443); details: linear polydA-oligodT template
Excerpt: DNA synthesis was quantitated using DE81 paper as described in Rowen et al., “Primase, the DnaG Protein of Escherichia coli. An Enzyme Which Starts DNA Chains,” J. Biol. Chem., 253:758-764 (1979), which is hereby incorporated by reference.

S. aureus Pol III-L = biological target: T2, S. aureus Pol III-L (Staphylococcus aureus, UniProt P0C1P9); assay: PolydA-oligodT replication assay, stimulation by beta; format: biochemical; details: linear polydA-oligodT template
T2 construct: made in house; host or cells: E. coli BL21(DE3), pET11PolC (β: pET16b)
Procedure: PolydA-oligodT was prepared as follows. […] OligodT35 was synthesized by Oligos etc.

Chain of E. coli Pol III core (P10443 whole entry): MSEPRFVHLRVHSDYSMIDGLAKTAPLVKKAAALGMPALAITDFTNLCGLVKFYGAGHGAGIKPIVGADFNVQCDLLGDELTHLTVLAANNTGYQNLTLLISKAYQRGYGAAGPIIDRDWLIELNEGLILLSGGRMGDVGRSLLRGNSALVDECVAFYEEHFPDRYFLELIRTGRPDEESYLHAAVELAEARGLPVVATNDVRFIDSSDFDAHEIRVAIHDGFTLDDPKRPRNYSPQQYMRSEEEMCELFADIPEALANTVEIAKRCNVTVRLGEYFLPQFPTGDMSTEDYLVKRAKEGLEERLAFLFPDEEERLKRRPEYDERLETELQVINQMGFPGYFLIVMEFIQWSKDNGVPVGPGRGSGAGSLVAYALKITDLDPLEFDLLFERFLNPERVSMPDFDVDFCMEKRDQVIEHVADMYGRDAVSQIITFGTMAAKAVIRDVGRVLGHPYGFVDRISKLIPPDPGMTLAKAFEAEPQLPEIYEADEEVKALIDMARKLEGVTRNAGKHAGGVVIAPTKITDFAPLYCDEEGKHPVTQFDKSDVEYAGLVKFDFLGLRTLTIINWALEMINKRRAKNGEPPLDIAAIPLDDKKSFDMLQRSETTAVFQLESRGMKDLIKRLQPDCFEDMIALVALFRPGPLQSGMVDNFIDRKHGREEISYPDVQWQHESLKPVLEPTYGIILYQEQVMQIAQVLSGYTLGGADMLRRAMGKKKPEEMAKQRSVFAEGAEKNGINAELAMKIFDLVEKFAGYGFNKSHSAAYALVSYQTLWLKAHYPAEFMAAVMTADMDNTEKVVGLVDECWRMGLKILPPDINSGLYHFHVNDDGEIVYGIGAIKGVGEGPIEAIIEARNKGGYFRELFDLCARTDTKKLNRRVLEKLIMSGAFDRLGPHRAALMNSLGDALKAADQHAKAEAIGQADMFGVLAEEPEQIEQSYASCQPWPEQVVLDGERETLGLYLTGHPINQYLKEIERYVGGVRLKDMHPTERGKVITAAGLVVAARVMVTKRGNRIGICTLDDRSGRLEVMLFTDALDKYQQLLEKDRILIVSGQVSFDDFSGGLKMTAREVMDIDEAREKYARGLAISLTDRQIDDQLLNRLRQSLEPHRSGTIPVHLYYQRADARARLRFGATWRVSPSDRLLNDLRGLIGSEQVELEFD
Chain of E. coli Pol III core (P03007 whole entry, further chain): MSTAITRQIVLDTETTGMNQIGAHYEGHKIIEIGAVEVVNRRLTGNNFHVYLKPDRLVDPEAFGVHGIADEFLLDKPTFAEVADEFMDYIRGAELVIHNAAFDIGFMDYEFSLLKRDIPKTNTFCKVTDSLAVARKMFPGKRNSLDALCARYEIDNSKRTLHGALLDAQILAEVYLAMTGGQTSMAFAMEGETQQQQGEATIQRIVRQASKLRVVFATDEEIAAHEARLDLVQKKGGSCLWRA
Chain of E. coli Pol III core (P0ABS8 whole entry, further chain): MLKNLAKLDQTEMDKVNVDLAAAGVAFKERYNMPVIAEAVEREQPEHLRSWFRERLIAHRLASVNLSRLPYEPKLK
T1 sequence (P0C0B7 whole entry D425A/L426T/C427Y/G428V/L429V/S430F): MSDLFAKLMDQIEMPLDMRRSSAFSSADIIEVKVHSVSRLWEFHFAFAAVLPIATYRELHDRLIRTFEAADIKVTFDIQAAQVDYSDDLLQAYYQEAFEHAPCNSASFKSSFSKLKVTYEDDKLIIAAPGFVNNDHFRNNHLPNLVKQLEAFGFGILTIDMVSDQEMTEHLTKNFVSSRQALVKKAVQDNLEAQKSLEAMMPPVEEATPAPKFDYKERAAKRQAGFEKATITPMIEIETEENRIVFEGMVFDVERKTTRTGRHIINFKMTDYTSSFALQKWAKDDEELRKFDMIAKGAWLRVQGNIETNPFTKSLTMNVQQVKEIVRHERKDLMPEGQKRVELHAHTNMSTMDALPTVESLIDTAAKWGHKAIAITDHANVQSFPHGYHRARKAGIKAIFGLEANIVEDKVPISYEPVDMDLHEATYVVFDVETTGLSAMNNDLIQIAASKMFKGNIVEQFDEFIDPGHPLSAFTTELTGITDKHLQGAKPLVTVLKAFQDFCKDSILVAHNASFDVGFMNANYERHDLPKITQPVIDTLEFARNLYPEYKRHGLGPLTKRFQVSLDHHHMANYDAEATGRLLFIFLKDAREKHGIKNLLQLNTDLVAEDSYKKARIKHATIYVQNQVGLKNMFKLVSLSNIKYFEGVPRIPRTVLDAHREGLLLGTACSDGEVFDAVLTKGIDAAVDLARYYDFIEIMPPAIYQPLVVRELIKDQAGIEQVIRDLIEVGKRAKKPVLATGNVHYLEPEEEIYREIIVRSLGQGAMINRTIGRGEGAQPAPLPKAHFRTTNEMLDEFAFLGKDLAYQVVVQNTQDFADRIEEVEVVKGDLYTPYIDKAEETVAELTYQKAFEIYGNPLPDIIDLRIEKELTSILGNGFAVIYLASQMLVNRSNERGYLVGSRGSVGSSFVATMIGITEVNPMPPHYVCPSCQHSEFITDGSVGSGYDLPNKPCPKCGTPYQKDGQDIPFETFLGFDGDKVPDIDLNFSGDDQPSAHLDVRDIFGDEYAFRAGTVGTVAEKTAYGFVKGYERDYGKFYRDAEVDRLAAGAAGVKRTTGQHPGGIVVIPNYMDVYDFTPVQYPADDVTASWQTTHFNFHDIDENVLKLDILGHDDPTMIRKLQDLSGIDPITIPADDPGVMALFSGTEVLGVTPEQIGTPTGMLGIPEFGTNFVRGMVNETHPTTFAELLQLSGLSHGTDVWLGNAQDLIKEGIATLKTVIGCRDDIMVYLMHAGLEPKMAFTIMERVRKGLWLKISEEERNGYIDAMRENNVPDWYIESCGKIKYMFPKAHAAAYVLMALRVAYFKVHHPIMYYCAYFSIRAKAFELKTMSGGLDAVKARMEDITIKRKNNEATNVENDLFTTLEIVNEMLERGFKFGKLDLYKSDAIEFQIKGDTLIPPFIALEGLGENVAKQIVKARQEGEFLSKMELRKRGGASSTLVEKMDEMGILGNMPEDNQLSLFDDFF
T2 sequence (P0C1P9 whole entry): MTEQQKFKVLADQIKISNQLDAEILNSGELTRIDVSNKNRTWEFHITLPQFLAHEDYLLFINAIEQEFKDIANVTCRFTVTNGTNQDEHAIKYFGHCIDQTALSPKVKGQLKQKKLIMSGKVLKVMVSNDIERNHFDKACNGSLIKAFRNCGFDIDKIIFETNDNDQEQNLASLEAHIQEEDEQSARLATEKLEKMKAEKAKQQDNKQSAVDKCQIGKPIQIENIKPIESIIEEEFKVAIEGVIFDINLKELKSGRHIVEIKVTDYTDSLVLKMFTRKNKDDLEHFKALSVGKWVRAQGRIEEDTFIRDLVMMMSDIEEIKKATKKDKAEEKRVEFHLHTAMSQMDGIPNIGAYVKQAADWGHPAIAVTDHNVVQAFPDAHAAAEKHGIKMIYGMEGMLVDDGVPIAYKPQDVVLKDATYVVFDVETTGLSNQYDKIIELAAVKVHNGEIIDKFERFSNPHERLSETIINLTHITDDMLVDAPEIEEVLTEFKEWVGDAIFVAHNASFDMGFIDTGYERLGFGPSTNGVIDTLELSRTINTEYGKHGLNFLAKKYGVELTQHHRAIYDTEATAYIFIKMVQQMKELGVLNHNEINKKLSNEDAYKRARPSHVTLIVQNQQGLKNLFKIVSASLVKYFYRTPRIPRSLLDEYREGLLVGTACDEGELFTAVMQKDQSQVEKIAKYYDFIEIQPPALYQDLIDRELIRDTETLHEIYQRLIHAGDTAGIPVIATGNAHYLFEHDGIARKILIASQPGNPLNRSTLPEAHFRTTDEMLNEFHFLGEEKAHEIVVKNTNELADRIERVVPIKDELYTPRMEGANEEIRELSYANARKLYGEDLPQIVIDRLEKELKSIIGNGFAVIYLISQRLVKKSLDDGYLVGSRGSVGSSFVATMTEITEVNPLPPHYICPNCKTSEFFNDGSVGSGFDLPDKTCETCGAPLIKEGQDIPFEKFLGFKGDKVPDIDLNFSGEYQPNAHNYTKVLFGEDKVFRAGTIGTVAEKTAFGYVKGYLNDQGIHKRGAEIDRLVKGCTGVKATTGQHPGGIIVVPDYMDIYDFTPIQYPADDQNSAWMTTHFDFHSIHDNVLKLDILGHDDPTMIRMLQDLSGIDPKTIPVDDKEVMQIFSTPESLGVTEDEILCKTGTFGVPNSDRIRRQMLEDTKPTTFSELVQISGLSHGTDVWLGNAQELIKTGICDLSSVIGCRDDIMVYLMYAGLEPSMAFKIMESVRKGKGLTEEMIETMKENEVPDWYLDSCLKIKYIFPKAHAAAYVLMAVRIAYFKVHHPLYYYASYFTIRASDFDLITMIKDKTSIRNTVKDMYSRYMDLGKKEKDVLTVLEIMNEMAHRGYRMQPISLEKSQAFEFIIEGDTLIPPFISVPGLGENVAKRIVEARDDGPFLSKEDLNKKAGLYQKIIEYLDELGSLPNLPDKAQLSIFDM

O=c1cc(N=Nc2ccc(O)cc2)[nH]c(=O)[nH]1 [HPUra, hydroxyphenylaza-uracil]
Inhibition of Gram positive PolC (Gram positive PolC): inhibited

O=c1cc(Nc2ccc3c(c2)CCC3)[nH]c(=O)[nH]1 [TMAU, trimethylanilino-uracil]
Inhibition of synthesis (formation of RFII product) (DnaE polymerase; 100 μM TMAU, in the presence of τδδ′/β): not affected
Inhibition of synthesis (formation of RFII product) (DnaE polymerase; TMAU, in the absence of τδδ′/β (not shown)): not affected
Inhibition of synthesis (formation of RFII product) (PolC·τδδ′, β): prevented from forming the RFII product

B1: S. aureus beta: S. aureus beta subunit encoded by dnaN, SEQ. ID. No. 10, sliding clamp (protein)
chain: MMEFTIKRDYFITQLNDTLKAISPRTTLPILTGIKIDAKEHEVILTGSDSEISIEITIPKTVDGEDIVNISETGSVVLPGRFFVDIIKKLPGKDVKLSTNEQFQTLITSGHSEFNLSGLDPDQYPLLPQVSRDDAIQLSVKVLKNVIAQTNFAVSTSETRPVLTGVNWLIQENELICTATDSHRLAVRKLQLEDVSENKNVIIPGKALAELNKIMSDNEEDIDIFFASNQVLFKVGNVNFISRLLEGHYPDTTRLFPENYEIKLSIDNGEFYHAIDRASLLAREGGNNVIKLSTGDDVVELSSTSPEIGTVKEEVDANDVEGGSLKISFNSKYMMDALKAIDNDEVEVEFFGTMKPFILKPKGDDSVTQLILPIRTY
modifications: left off: small tags and cut ends
notes: ID; No. 10, sliding clamp
Stimulation of polymerase DNA synthesis (E. coli Pol III core): about 5 fold
Stimulation of polymerase DNA synthesis (S. aureus Pol III-L): 5-6 fold
